Reference: patent publication EP4257130A1, “INOBRODIB FOR USE IN THE TREATMENT OF PULMONARY ARTERIAL HYPERTENSION” (Justus-Liebig-Universität Gießen, priority 2022, dated 2023)

Legend:
[1] = system: FHR-PAH; experiment: FHR-PAH rat model: right heart catheterisation and histology; type: in vivo, Fawn-hooded hypertensive Ratten; settings: FHR-PAH rats, three times weekly for two weeks
Text: (§1) Um das therapeutische Potenzial der EP300/CREBBP-Hemmung in vivo weiter zu erforschen, haben die Erfinder Versuchstiere in drei verschiedenen Nagetiermodellen mit etablierter PAH mit der Substanz CCS1477 behandelt, wobei CCS1477 durch orale Verabreichung über zwei Wochen lang dreimal wöchentlich verabreicht wurde. Es wurden folgende drei verschiedenen Nagetiermodelle für eine PAH (FHR-PAH, MCT-PAH und SuHx-PAH) getestet: • Fawn-hooded hypertensive Ratten (FHR): Das ist ein genetischer Rattenstamm, bei dem PAH im Alter spontan auftritt und der ähnliche PAH-Anomalien aufweist, wie sie bei IPAH bei Menschen nach 40 Wochen auftreten. • Durch Monocrotalin (MCT) induziertes PAH-Rattenmodell. • Ein SUGEN5416/chronische Hypoxie (SuHx)-Rattenmodell für PAH, bei dem die Ratten eine einmalige Injektion von SUGEN5416 erhielten und anschließend einer chronischen Hypoxie (10% O2) ausgesetzt wurden (SuHx-PAH).
(§2) Für die MCT-PAH wurden männlichen und weiblichen SD-Ratten (Sprague-Dawley-Ratten) subkutan 60 mg/kg MCT (Sigma, Katalog: C2401) injiziert, um PAH zu induzieren. Bei der SuHx-PAH erhielten SD-Ratten eine einmalige subkutane Injektion von SUGEN5416 (20 mg/kg) und wurden drei Wochen lang einer normobaren Hypoxie ausgesetzt, bevor sie für zwei Wochen an die Raumluft zurückkehrten. Zwei Wochen nach der MCT-Injektion bzw. drei Wochen nach der SUGEN5416-Injektion (sobald PAH festgestellt wurde) wurden die Ratten nach dem Zufallsprinzip in vier Gruppen eingeteilt und erhielten zwei Wochen lang dreimal wöchentlich entweder Vehikel (Verabreichung von 1 % Methylcellulose in destilliertem Wasser oder intratracheale Vernebelung von 4 % DMSO in PBS als Negativkontrolle), CCS1477 (Verabreichung von 10 mg/kg in 1 % Methylcellulose + destilliertem Wasser). Einjährige männliche und weibliche FHR-Ratten mit etablierter PAH wurden in dieselben vier Gruppen wie beim MCT-Modell eingeteilt und denselben Behandlungsmethoden unterzogen. Nach zweiwöchiger Behandlung wurde eine Rechtsherzkatheteruntersuchung bei geschlossenem Thorax durchgeführt, um folgende hämodynamischen Daten zu erfassen: Systolischer Rechtsventrikulärer Druck (RVSP), mittlerer PA-Druck (mPAP), Herzzeitvolumen (CO) und Schlagvolumen (SV). Der Gesamtwiderstand der Lunge (TPR) wurde durch Division von mPAP durch CO ermittelt. Nach der hämodynamischen Messung wurden den Ratten Gewebeproben entnommen. Die Experimente wurden gemäß den Richtlinien des Canadian Council on Animal Care durchgeführt. Alle Protokolle wurden von der institutionellen Ethikkommission für Tiere (Tierschutzausschuss der Universität Laval) geprüft und genehmigt (Protokollnummer 2019-018-2). Alle Experimente folgten den Richtlinien für die präklinische Forschung bei PAH.
(§3) • Abbildung 1: Umkehrung von PAH-Phänotypen durch therapeutische Modulation der dysregulierten HATs EP300 und CREBBP ex vivo • A: PAH-FBs wurden mit siRNAs (siP300) behandelt, die auf EP300 abzielen (n=3), um die genspezifische funktionelle Rolle von EP300 bei der Hyperproliferation ex vivo 48 Stunden nach der Transfektion zu untersuchen. Die Zellproliferation wurde durch BrdU-Inkorporation bestimmt. Die Werte wurden auf scrambled siRNA (siScr) normalisiert und sind als Mittelwert ± SD angegeben (n=3, ungepaarter t-Test; *P < 0,05 vs. scrambled siRNA). • B: PAH-FBs wurden mit verschiedenen Konzentrationen des EP300/CREBBP-Inhibitors CCS1477 oder dem Lösungsmittel DMSO inkubiert, um die Wirkung der selektiven EP300/CREBBP-Inhibition auf die Zellproliferation (bewertet durch BrdU-Inkorporation) zu untersuchen. Als Vergleichssubstanz wurde ein weiterer EP300/CREBBP-Inhibitor (SGC-CBP30) parallel dazu unter denselben Bedingungen inkubiert. […]

[2] = system: PAH-FBs; experiment: Cell proliferation by BrdU incorporation in PAH fibroblasts; type: cell-based, Mensch; settings: PAH-FBs isolated ex vivo, various concentrations, 24 h, vs. DMSO
Text: (§4) Diese Untersuchungen führten zu der Erkenntnis, dass die epigenetische Regulation der entwicklungsbedingten TF-Expression in der Lunge durch Modulation der EP300/CREBBP-Funktion rückgängig gemacht werden kann. Die Wirkung des niedermolekularen Inhibitors (Substanz, Wirkstoff) CCS1477 auf die Proliferation von Gefäßzellen, die Apoptose sowie die Gen- und Proteinexpression wurde mit Hilfe geeigneter Assays nach der Transfektion untersucht. Nachdem Zellen zur Subkonfluenz gewachsen sind, wurde ihnen mit steigenden Konzentrationen der selektive EP300-Inhibitor CCS1477 (Chemietek, Katalognummer: CT-CCS1477) hinzugefügt. Die aus PAH-Patienten isolierten FBs wurden also mit dem isoformselektiven HAT-Inhibitor CCS1477 behandelt. […]
(§5) • Abbildung 1: Umkehrung von PAH-Phänotypen durch therapeutische Modulation der dysregulierten HATs EP300 und CREBBP ex vivo • A: PAH-FBs wurden mit siRNAs (siP300) behandelt, die auf EP300 abzielen (n=3), um die genspezifische funktionelle Rolle von EP300 bei der Hyperproliferation ex vivo 48 Stunden nach der Transfektion zu untersuchen. […] Skalenbalken: 50 µm. • E: Die Wirkung der P300-Inhibition (200 µM) auf den Gefäßumbau wurde durch Quantifizierung der prozentualen medialen Wanddicke in den mit dem EP300/CREBBP-Inhibitor CCS1477 inkubierten PCLS im Vergleich zu den mit DMSO inkubierten Kontrollen bewertet. […]

[3] = system: PAH-SMCs; experiment: Apoptosis in PAH smooth muscle cells; type: cell-based, Mensch; settings: vs. DMSO
Text: (§6) Diese Untersuchungen führten zu der Erkenntnis, dass die epigenetische Regulation der entwicklungsbedingten TF-Expression in der Lunge durch Modulation der EP300/CREBBP-Funktion rückgängig gemacht werden kann. Die Wirkung des niedermolekularen Inhibitors (Substanz, Wirkstoff) CCS1477 auf die Proliferation von Gefäßzellen, die Apoptose sowie die Gen- und Proteinexpression wurde mit Hilfe geeigneter Assays nach der Transfektion untersucht. Nachdem Zellen zur Subkonfluenz gewachsen sind, wurde ihnen mit steigenden Konzentrationen der selektive EP300-Inhibitor CCS1477 (Chemietek, Katalognummer: CT-CCS1477) hinzugefügt. Die aus PAH-Patienten isolierten FBs wurden also mit dem isoformselektiven HAT-Inhibitor CCS1477 behandelt. Gleichzeitig wurde den Zellen das Lösungsmittel DMSO (Sigma) mit entsprechenden Konzentrationen hinzugefügt.
(§7) PAH-FBs wurden mit verschiedenen Konzentrationen der Substanz CCS1477 oder dem Lösungsmittel DMSO inkubiert, um die Zellproliferation und die Induktion von Apoptose 24 Stunden danach zu untersuchen. […]
(§8) Das therapeutische Potenzial der EP300/CREBBP-Hemmung durch die Substanz CCS1477 wurde untersucht. […] Die Wirkung der EP300-Hemmung auf das vaskuläre Remodelling wurde durch Quantifizierung der prozentualen medialen Wanddicke in den mit der Substanz CCS1477 inkubierten PCLS im Vergleich zu den mit DMSO inkubierten Kontrollen bewertet. […]

[4] = system: PAH-FBs; experiment: Apoptosis by Cell Death Detection ELISAPLUS in PAH fibroblasts; type: cell-based, Mensch; settings: PAH-FBs isolated ex vivo, various concentrations, 24 h, vs. DMSO
Text: as §4, §5

[5] = system: PAH-PCLS; experiment: Vascular remodelling (medial wall thickness) in precision-cut lung slices ex vivo; type: cell-based, Mensch; settings: human PAH-PCLS, 200 µM on days 2 and 6, fixed day 10, vessels 20-150 µm, vs. DMSO
Text: Lungengewebeproben wurden von Patienten mit IPAH entnommen. Aus den mit 3% niedrigschmelzender Agarose gefüllten Lungenproben von Patienten mit IPAH wurden mit einem Vibratom (Leica Biosystems) Gewebeschnitte (400 µm dick) angefertigt. Die Lungengewebeschnitte wurden in DMEM-GlutaMAX-Medium mit 10 % fetalem Kälberserum, 1 % Penicillin/Streptomycin und 0,1 % Amphotericin B (Thermo Fisher Scientific) kultiviert, und die Behandlung wurde am zweiten Tag eingeleitet. Die Substanz CCS1477 wurde in einer Konzentration von 200 µM an den Tagen 2 und 6 verabreicht. Am 10. Tag wurde das Gewebe in 4% Paraformaldehyd (Roti-Histofix; Carl Roth) fixiert und in Paraffin eingebettet. Die mediale Wanddicke wurde in allen Gefäßen mit einer Größe von 20-150 µm in den Lungenschnitten gemessen.
as §8, with “untersucht. Dazu wurde die Wirksamkeit auf PAH-FBs und PAH-SMCs geprüft, die aus den Lungenarterien von menschlichen PAH-Patienten und aus den Lungenarterien von Ratten mit MCT-PAH (Rattenmodell mit Monocrotalin) isoliert wurden.” for “untersucht.”

[6] = system: PAH-SMCs; experiment: Cell proliferation (hyperproliferative phenotype) in PAH smooth muscle cells; type: cell-based, Mensch; settings: vs. DMSO
Text: as §6, §7, §8

[7] = system: SuHx-PAH; experiment: SuHx-PAH rat model (SUGEN5416/chronic hypoxia): right heart catheterisation and histology; type: in vivo, SD-Ratten; settings: three times weekly for two weeks
Text: as §1, §2, §3

[8] = system: MCT-PAH; experiment: MCT-PAH rat model: right heart catheterisation and histology; type: in vivo, SD-Ratten; settings: MCT-PAH rats, three times weekly for two weeks
Text: as §1, §2, §3

[9] = 10 mg/kg in 1 % methylcellulose, oral, vs. vehicle
[10] = 10 mg/kg oral, TPR = mPAP divided by CO
[11] = SUGEN5416/chronic hypoxia PAH rats, 10 mg/kg oral, vs. vehicle
[12] = SuHx-PAH rats, 10 mg/kg in 1 % methylcellulose, oral, vs. vehicle

CO[C@H]1CC[C@H](n2c([C@@H]3CCCC(=O)N3c3ccc(F)c(F)c3)nc3cc(-c4c(C)noc4C)ccc32)CC1 [CCS1477, (S)-1-(3,4-difluorophenyl)-6-(5-(3,5-dimethylisoxazol-4-yl)-1-((1r,4S)-4-methoxycyclohexyl)-1H-benzo[d]imidazol-2-yl)piperidin-2-on]
RVSP [1, 9]: signifikanten Senkung | mPAP [1, 9]: signifikanten Senkung | mediale Wanddicke der distalen PAs ([1]; 10 mg/kg oral): signifikant verringert | molekulare Marker für Myokardhypertrophie ([1]; 10 mg/kg oral): signifikant abgeschwächt | CO ([1]; 10 mg/kg oral, vs. vehicle): verbesserten sich nach der Behandlung mit der Substanz CCS1477 bei FHR-PAH und MCT-PAH signifikant | SV ([1]; 10 mg/kg oral, vs. vehicle): verbesserten sich nach der Behandlung mit der Substanz CCS1477 bei FHR-PAH und MCT-PAH signifikant | TPR [1, 10]: signifikanten Senkung | hyperproliferativer Phänotyp (Zellproliferation, Einbau von BrdU) [2]: schwächte den hyperproliferativen Phänotyp und die Apoptoserate von PAH-FBs und PAH-SMCs deutlich ab | Apoptoserate [3]: schwächte den hyperproliferativen Phänotyp und die Apoptoserate von PAH-FBs und PAH-SMCs deutlich ab | Apoptoserate (Induktion von Apoptose, Cell Death Detection ELISAPLUS) [4]: schwächte den hyperproliferativen Phänotyp und die Apoptoserate von PAH-FBs und PAH-SMCs deutlich ab | mediale Wanddicke der umgestalteten PAs [5]: signifikante Verringerung der medialen Wanddicke | hyperproliferativer Phänotyp [6]: schwächte den hyperproliferativen Phänotyp und die Apoptoserate von PAH-FBs und PAH-SMCs deutlich ab | CO [7, 11]: verbesserte CO und SV auch bei SUGEN5416/chronischer Hypoxie-PAH signifikant | SV [7, 11]: verbesserte CO und SV auch bei SUGEN5416/chronischer Hypoxie-PAH signifikant | RVSP [7, 12]: signifikanten Senkung | mPAP [7, 12]: signifikanten Senkung | mediale Wanddicke der distalen PAs ([7]; SuHx-PAH rats, 10 mg/kg oral): signifikant verringert | TPR ([7]; SuHx-PAH rats, 10 mg/kg oral, TPR = mPAP divided by CO): signifikanten Senkung | RVSP [8, 9]: signifikanten Senkung | mPAP [8, 9]: signifikanten Senkung | mediale Wanddicke der distalen PAs ([8]; 10 mg/kg oral): signifikant verringert | CO ([8]; 10 mg/kg oral, vs. vehicle): verbesserten sich nach der Behandlung mit der Substanz CCS1477 bei FHR-PAH und MCT-PAH signifikant | SV ([8]; 10 mg/kg oral, vs. vehicle): verbesserten sich nach der Behandlung mit der Substanz CCS1477 bei FHR-PAH und MCT-PAH signifikant | TPR [8, 10]: signifikanten Senkung
